Results: patent US12486234B2, “PAPD5 inhibitors and methods of use thereof” (Children's Medical Center Corporation, priority 2019, dated 2025)

Assays:
PAPD5 [1] = target: T1, PAPD5 (Homo sapiens, UniProt Q8NDF8); assay: DSF binding assay (shift in temperature); details: shift in temperature at 100 μM of the compound
T1 construct: made in house
Protocol: (§1) Qualitative measure of RNA oligo-extension inhibition for the tested compounds, expressed as range from minimal activity (0) to that of compound 1 (+++), and results of a DSF binding assay (shown as shift in temperature at 100 μM of the compound) are shown in the Table 2 below.

PAPD5 [2] = target: T1, PAPD5; assay: RNA oligo-adenylation (oligo-extension) inhibition assay with recombinant PAPD5; assay type: biochemical; set-up: key: minimal activity (0); range from minimal activity (0) to that of compound 1 (+++); range from minimal activity (0) to that of compound 1 (+++); that of compound 1 (+++); details: qualitative measure of RNA oligo-extension inhibition, relative to compound 1
Protocol: An in vitro RNA polyadenylation assay using recombinant PAPD5, ATP and an oligonucleotide substrate utilized the following phenomenon: ATP utilization by PAPD5 reads out as a decreased luminescence signal produced by luciferase (KinaseGlo, Promega, Madison, WI).
as §1

T1 sequence (Q8NDF8 68-698 isoform Q8NDF8-5 limits assumed): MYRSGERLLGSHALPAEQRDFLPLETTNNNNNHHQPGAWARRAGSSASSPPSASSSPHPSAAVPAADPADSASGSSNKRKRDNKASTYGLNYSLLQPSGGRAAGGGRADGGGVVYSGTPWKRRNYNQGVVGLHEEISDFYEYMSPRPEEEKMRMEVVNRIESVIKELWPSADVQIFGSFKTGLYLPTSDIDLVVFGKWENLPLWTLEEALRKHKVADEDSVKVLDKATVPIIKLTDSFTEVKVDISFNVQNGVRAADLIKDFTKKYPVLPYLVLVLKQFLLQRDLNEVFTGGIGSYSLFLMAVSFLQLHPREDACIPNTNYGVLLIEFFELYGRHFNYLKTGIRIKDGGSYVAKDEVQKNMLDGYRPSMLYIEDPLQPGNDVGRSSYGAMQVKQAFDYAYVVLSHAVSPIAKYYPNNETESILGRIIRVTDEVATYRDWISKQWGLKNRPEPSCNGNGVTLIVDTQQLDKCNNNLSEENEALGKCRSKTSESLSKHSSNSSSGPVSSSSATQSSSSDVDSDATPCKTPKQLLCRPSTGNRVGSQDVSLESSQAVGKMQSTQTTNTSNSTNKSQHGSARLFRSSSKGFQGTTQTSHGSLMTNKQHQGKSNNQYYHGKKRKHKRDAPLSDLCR

| Compound | ΔTm at 100 µM (PAPD5 [1]) | Inhibition of PAPD5 RNA oligo adenylation (PAPD5 [2]) | ΔTm 100 μM (PAPD5 [1]) |
| --- | --- | --- | --- |
| COCCCOc1cc2ncc(C#N)c(Nc3ccccc3C(=O)O)c2cc1OC [Compound 51A, 2-[[3-cyano-6-methoxy-7-(3-methoxypropoxy)-4-quinolyl]amino]benzoic acid] | 7.9 °C | + | – |
| Nc1cccc(Nc2c(S(=O)(=O)N3CCOCC3)cnc3ccc(Br)cc23)c1C(=O)O [Compound 85A-BP, 2-amino-6-[(6-bromo-3-morpholinosulfonyl-4-quinolyl)amino]benzoic acid] | 6.8 °C | – | – |
| O=C(O)c1ccccc1Nc1c(S(=O)(=O)N2CCOCC2)cnc2ccc(Br)cc12 [Compound 70A, 2-[(6-bromo-3-morpholinosulfonyl-4-quinolyl)amino]benzoic acid] | 13.7 °C | +++ | – |
| CCOC(=O)c1cnc2ccc(OC(F)(F)F)cc2c1Nc1scnc1C(=O)O [Compound 5A, 5-((3-(ethoxycarbonyl)-6-(trifluoromethoxy)quinolin-4-yl)amino)thiazole-4-carboxylic acid] | 2.3 °C | 0 | – |
| COCCCOc1cc2ncc(C#N)c(Nc3cccc(O)c3C(=O)O)c2cc1OC [Compound 55A, 2-[[3-cyano-6-methoxy-7-(3-methoxypropoxy)-4-quinolyl]amino]-6-hydroxy-benzoic acid] | 13.9 °C | +++ | – |
| NS(=O)(=O)c1cnc2ccc(OC(F)(F)F)cc2c1Nc1ccccc1C(=O)O [Compound 16A, 2-[[3-sulfamoyl-6-(trifluoromethoxy)-4-quinolyl]amino]benzoic acid] | 9.6 °C | +++ | – |
| CCOC(=O)c1cnc2ccc(OC(F)(F)F)cc2c1Nc1scnc1C(=O)OCC [Compound 33A, ethyl 5-[[3-ethoxycarbonyl-6-(trifluoromethoxy)-4-quinolyl]amino]thiazole-4-carboxylate] | 0.7 °C | 0 | – |
| O=C(O)c1ccccc1Nc1c(C(=O)N2CCNCC2)cnc2ccc(OC(F)(F)F)cc12 [Compound 14A, 2-[[3-(piperazine-1-carbonyl)-6-(trifluoromethoxy)-4-quinolyl]amino]benzoic acid] | 1.7 °C | ++ | – |
| CCOC(=O)c1cnc2ccc(OC(F)(F)F)cc2c1Nc1ccccc1C#N [Compound 25A, ethyl 4-(2-cyanoanilino)-6-(trifluoromethoxy)quinoline-3-carboxylate] | 0.1 °C | 0 | – |
| COc1cccc(Nc2c(S(=O)(=O)N3CCN(C(=O)OCc4ccccc4)CC3)cnc3ccc(Br)cc23)c1C(=O)O [Compound 93A-INT, 2-[[3-(4-benzyloxycarbonylpiperazin-1-yl)sulfonyl-6-bromo-4-quinolyl]amino]-6-methoxy-benzoic acid] | 0 °C | – | – |
| NS(=O)(=O)c1cnc2ccc(-c3cccc4ncoc34)cc2c1Nc1ccccc1C(=O)O [Compound 64A, 2-[[6-(1,3-benzoxazol-7-yl)-3-sulfamoyl-4-quinolyl]amino]benzoic acid] | 6.3 °C | – | – |
| CCOC(=O)c1cnc2ccc(-c3cccc4[nH]ccc34)cc2c1Nc1ccccc1C(=O)O [Compound 23A, 2-[[3-ethoxycarbonyl-6-(1H-indol-4-yl)-4-quinolyl]amino]benzoic acid] | 4.6 °C | +++ | – |
| O=C(O)c1ccccc1Nc1c(S(=O)(=O)N2CCOCC2)cnc2ccc(Cl)cc12 [Compound 80A, 2-[(6-chloro-3-morpholinosulfonyl-4-quinolyl)amino]benzoic acid] | 16.4 °C | +++ | – |
| CCOC(=O)c1cnc2ccc(OC(F)(F)F)cc2c1Nc1ccccc1S(=O)(=O)NCC(F)(F)F [Compound 34A, ethyl 4-[2-(2,2,2-trifluoroethylsulfamoyl)anilino]-6-(trifluoromethoxy)quinoline-3-carboxylate] | 0.3 °C | 0 | – |
| CCOC(=O)c1cnc2ccc(-n3ccc4cc(O)ccc43)cc2c1Nc1ccccc1C(=O)O [Compound 29A, 2-[[3-ethoxycarbonyl-6-(5-hydroxyindol-1-yl)-4-quinolyl]amino]benzoic acid] | 4.9 °C | +++ | – |
| O=C(O)c1cccnc1Nc1c(C(=O)O)cnc2ccc(OC(F)(F)F)cc12 [Compound 28A, 4-[(3-carboxy-2-pyridyl)amino]-6-(trifluoromethoxy)quinoline-3-carboxylic acid] | 5.5 °C | + | – |
| COCCCOc1cc2ncc(C(=O)N3CCOCC3)c(Nc3ccccc3C(=O)O)c2cc1OC [Compound 53A, 2-[[6-methoxy-7-(3-methoxypropoxy)-3-(morpholine-4-carbonyl)-4-quinolyl]amino]benzoic acid] | 5.2 °C | + | – |

| Compound | ΔTm at 100 µM (PAPD5 [1]) | Inhibition of PAPD5 RNA oligo adenylation (PAPD5 [2]) | ΔTm 100 μM (PAPD5 [1]) |
| --- | --- | --- | --- |
| COCCCOc1cc2ncc(-c3ncco3)c(Nc3ccccc3C(=O)O)c2cc1OC [Compound 58A, 2-[[6-methoxy-7-(3-methoxypropoxy)-3-oxazol-2-yl-4-quinolyl]amino]benzoic acid] | 8.5 °C | + | – |
| CN(C)C(=O)c1cnc2ccc(OC(F)(F)F)cc2c1Nc1ccccc1C(=O)O [Compound 12A, 2-[[3-(dimethylcarbamoyl)-6-(trifluoromethoxy)-4-quinolyl]amino]benzoic acid] | 6.1 °C | + | – |
| CCOC(=O)c1cnc2ccc(C(=O)N3CCNCC3)cc2c1Nc1ccccc1C(=O)O [Compound 18A, 2-[[3-ethoxycarbonyl-6-(piperazine-1-carbonyl)-4-quinolyl]amino]benzoic acid] | -0.1 °C | 0 | – |
| NS(=O)(=O)c1cnc2ccc(Cl)cc2c1Nc1ccccc1C(=O)O [Compound 63A, 2-[(6-chloro-3-sulfamoyl-4-quinolyl)amino]benzoic acid] | 9.3 °C | +++ | – |
| CCOC(=O)c1cnc2ccc(OC(F)(F)F)cc2c1Nc1ccccc1C(=O)O [Compound 32A, 2-[[3-ethoxycarbonyl-6-(trifluoromethoxy)-4-quinolyl]amino]benzoic acid] | 7.9 °C | +++ | – |
| O=C(O)c1ccccc1Nc1c(C(=O)N2CCOCC2)cnc2ccc(OC(F)(F)F)cc12 [Compound 13A, 2-[[3-(morpholine-4-carbonyl)-6-(trifluoromethoxy)-4-quinolyl]amino]benzoic acid] | 5.6 °C | + | – |
| N#Cc1cnc2ccc(-c3cccc4ncccc34)cc2c1Nc1ccccc1C(=O)O [Compound 54A, 2-[[3-cyano-6-(5-quinolyl)-4-quinolyl]amino]benzoic acid] | – | +++ | fluorescent |
| O=C(O)c1c(O)cccc1Nc1c(S(=O)(=O)N2CCOCC2)cnc2ccc(Br)cc12 [Compound 78A, 2-[(6-bromo-3-morpholinosulfonyl-4-quinolyl)amino]-6-hydroxy-benzoic acid] | 17.1 °C | +++ | – |
| CCOC(=O)c1cnc2ccc(OC3CCNCC3)cc2c1Nc1ccccc1C(=O)O [Compound 19A, 2-[[3-ethoxycarbonyl-6-(4-piperidyloxy)-4-quinolyl]amino]benzoic acid] | 0.6 °C | 0 | – |
| COc1cccc(Nc2c(S(=O)(=O)N3CCOCC3)cnc3ccc(Br)cc23)c1C(=O)O [Compound 78A-INT, 2-[(6-bromo-3-morpholinosulfonyl-4-quinolyl)amino]-6-methoxy-benzoic acid] | 1.1 °C | 0 | – |
| CCOC(=O)c1cnc2ccc(Br)cc2c1Nc1ccccc1C(=O)O [Compound 26A, 2-[(6-bromo-3-ethoxycarbonyl-4-quinolyl)amino]benzoic acid] | 11.1 °C | +++ | – |
| O=C(O)c1ccccc1Nc1c(-c2ncco2)cnc2ccc(OC(F)(F)F)cc12 [Compound 17A, 2-[[3-oxazol-2-yl-6-(trifluoromethoxy)-4-quinolyl]amino]benzoic acid] | 8.4 °C | +++ | – |
| COCCCOc1cc2ncc(C(=O)N(C)C)c(Nc3ccccc3C(=O)O)c2cc1Br [Compound 57A, 2-[[6-bromo-3-(dimethylcarbamoyl)-7-(3-methoxypropoxy)-4-quinolyl]amino]benzoic acid] | 9.8 °C | +++ | – |
| COc1cccc(Nc2c(S(=O)(=O)N3CCOCC3)cnc3ccc(Cl)cc23)c1C(=O)O [Compound 79A-INT, 2-[(6-chloro-3-morpholinosulfonyl-4-quinolyl)amino]-6-methoxy-benzoic acid] | 0 °C | – | – |
| CC(=O)Nc1cccc(Nc2c(S(=O)(=O)N3CCOCC3)cnc3ccc(Br)cc23)c1C(=O)O [Compound 85A, 2-acetamido-6-[(6-bromo-3-morpholinosulfonyl-4-quinolyl)amino]benzoic acid] | 0 °C | – | – |
| O=C(O)c1c(Nc2c(S(=O)(=O)N3CCOCC3)cnc3ccc(Br)cc23)ccc(Br)c1O [Compound 78A-BR, 3-bromo-6-[(6-bromo-3-morpholinosulfonyl-4-quinolyl)amino]-2-hydroxy-benzoic acid] | – | – | fluorescent |
| N#Cc1cnc2ccc(OC(F)(F)F)cc2c1Nc1ccccc1C(=O)O [Compound 15A, 2-[[3-cyano-6-(trifluoromethoxy)-4-quinolyl]amino]benzoic acid] | 8.8 °C | – | – |
